Experimental data published in patent US5298494A, “Monosaccharides having anti-proliferation and anti-inflammatory activity, compositions and uses thereof” (Greenwich Pharmaceuticals Incorporated, priority 1993, dated 1994).

Experiments:
[1] = test system: BUD-8 human skin fibroblasts; assay: Fibroblast assay: proliferation of BUD-8 skin cell fibroblasts; type: cell-based
Protocol: The human skin cell fibroblast line, BUD-8 was obtained prior to each assay from the American Type Culture Collection. This is a fibroblast-like cell line which was originally derived from the normal skin of a person.
BUD-8 cell cultures were expanded for use in 25 cm^2 flasks at 37° C. in an atmosphere of 5% CO2 in air. At approximately 4-5 five day intervals, or when confluence was reached, the cells were passaged. This was accomplished by detaching the cells with a Teflon scraper, washing and reseeding the cells at a lower density into fresh tissue culture flasks.
(§1) The effect of the compound of the present invention on the proliferative capacity of human BUD-8 skin fibroblasts was measured with the use of a ^3 H-thymidine incorporation assay using culture conditions which were similar to those used for a Con-A blastogenesis assay, described previously. Cultured skin cells were detached from the surface of tissue culture flasks mechanically with a Teflon scraper. The cells were washed, resuspended in incubation medium and the viabilities were determined. These cells were then plated in triplicate at a density of 2×10^3 cells/0.1 ml/microtiter well for the proliferation assay and a density of 1×10^4 cells/0.1 ml/microtiter well for the assays to quantitate PGE2 and LTB4. To these cells was added incubation medium containing indomethacin to inhibit prostaglandin production, or nordihydroguaiaretic acid (NDGA) to inhibit leukotriene production (positive controls).
After 3 days of culture, 1 uCi ^3 H-thymidine was added in a 50 ul volume to each culture well of the microtiter plates. Eighteen hours later, each of the BUD-8 cultures was examined morphologically for evidence of compound-induced toxicity such as cell rounding or granularity. The thymidine-pulsed cells were then precipitated and the amount of ^3 H-thymidine incorporated was counted in a liquid scintillation counter.
The concentrations of the compounds of the invention which were used in these assays were:
The incubation medium used for culturing the BUD-8 cells was RPMI-1640 medium containing 10% fetal bovine serum, 100 ug/ml streptomycin, 100 U/ml penicillin, 0.2M Hepes buffer solution, 5×10^-5 M 2-mercaptoethanol and 2 mM glutamine.

[2] = test system: LTB4 production by BUD-8 skin cell fibroblasts; assay: LTB4 production by BUD-8 skin cell fibroblasts (radioimmunoassay); type: cell-based, human
Protocol: as §1
(§2) After 18 hours of culture, samples of the BUD-8 skin cell supernatants were collected from one set of microtiter plates and frozen until assayed for PGE2 or for LTB4 content using the radioimmunoassays described below.
Levels of LTB4 in aliquots of BUD-8 skin cell cultures supernatants were quantitated by radioimmunoassay (New England Nuclear). Briefly, into each polyproplyene tube were mixed 0.1 ml anti-LTB4, 0.1. ml ^3 H-LTB4 and 0.1 ml LTB4 standard or LTB4 containing sample. The BUD-8 skin cell culture supernatants were used directly in the radioimmunoassay. Tubes were refrigerated overnight. A charcoal solution (0.5 ml of 0.5% charcoal Norit A) was added and each tube was centrifuged. The radioactivity in the supernatant was then counted in a liquid scintillation counter.

[3] = test system: PGE2 production by BUD-8 skin cell fibroblasts; assay: PGE2 production by BUD-8 skin cell fibroblasts (radioimmunoassay); type: cell-based, human
Protocol: as §1, §2
A radioinmunoassay (New England Nuclear) was used to quantitate PGE2 levels in BUD-8 skin cell culture supernatants. Briefly, into each polypropylene tube were mixed 0.1 ml anti-PGE2, 0.1 ml ^125 1-PGE2 and 0.1 ml PGE2 standard or PGE2 containing sample. The BUD-8 skin culture supernatants were diluted 1:2 prior to addition to the radioimmunoassay. Tubes were refrigerated overnight. A polyethylene glycol solution (16%, 6,000 m.w.) was then added to precipitate immune complexes and the radioactivity in the precipitate was counted in a gamma counter.

## CC1(C)OC2OC3C(O)COC3(O)C2O1 [IV, (3S) 1,2-O-isopropylidene-α-D-ribo-hexos-3-ulose-1,4:3,6-difuranose]
[1]; 1 ug/ml
  ^3 H-Thymidine uptake by BUD-8 skin cells: 3,607 ± 87 cpm
[1]; 10 ug/ml
  ^3 H-Thymidine uptake by BUD-8 skin cells: 4,077 ± 374 cpm
[1]; 25 ug/ml
  ^3 H-Thymidine uptake by BUD-8 skin cells: 3,791 ± 451 cpm
[1]; 100 ug/ml
  ^3 H-Thymidine uptake by BUD-8 skin cells: 4,032 ± 3 cpm
[1]; 300 ug/ml
  ^3 H-Thymidine uptake by BUD-8 skin cells: 2,882 ± 387 cpm
[1]; 750 ug/ml
  ^3 H-Thymidine uptake by BUD-8 skin cells: 2,658 ± 247 cpm
[1]; Homo sapiens, Skin fibroblast, 1 ug/ml, read-out: % Effect on BUD-8 proliferation
  inhibition at 1 µg/mL: 51%
[1]; Homo sapiens, Skin fibroblast, 10 ug/ml, read-out: % Effect on BUD-8 proliferation
  inhibition at 10 µg/mL: 44%
[1]; Homo sapiens, Skin fibroblast, 25 ug/ml, read-out: % Effect on BUD-8 proliferation
  inhibition at 25 µg/mL: 48%
[1]; Homo sapiens, Skin fibroblast, 100 ug/ml, read-out: % Effect on BUD-8 proliferation
  inhibition at 100 µg/mL: 45%
[1]; Homo sapiens, Skin fibroblast, 300 ug/ml, read-out: % Effect on BUD-8 proliferation
  inhibition at 300 µg/mL: 61%
[1]; Homo sapiens, Skin fibroblast, 750 ug/ml, read-out: % Effect on BUD-8 proliferation
  inhibition at 750 µg/mL: 64%
[2]
  effect on LTB4 production in words: significantly decrease of levels of both pro-inflammatory mediators are seen at several non-toxic doses
[2]; 1 ug/ml
  LTB4 in supernatant (Table XXI): 36.4 ± 5.2 pg LTB4 100 ul supernatant
  calculated LTB4 produced/10^5 BUD-8 cells: 1,621 pg per 10^5 cells
[2]; 10 ug/ml
  LTB4 in supernatant (Table XXI): 19.9 ± 3.8 pg LTB4 100 ul supernatant
[2]; 25 ug/ml
  LTB4 in supernatant (Table XXI): 17.7 ± 3.8 pg LTB4 100 ul supernatant
  calculated LTB4 produced/10^5 BUD-8 cells: 683 pg per 10^5 cells
[2]; 100 ug/ml
  LTB4 in supernatant (Table XXI): 17.3 ± 0.9 pg LTB4 100 ul supernatant
  calculated LTB4 produced/10^5 BUD-8 cells: 665 pg per 10^5 cells
[2]; 300 ug/ml
  LTB4 in supernatant (Table XXI): 25.7 ± 5.0 pg LTB4 100 ul supernatant
  calculated LTB4 produced/10^5 BUD-8 cells: 1,083 pg per 10^5 cells
[2]; 750 ug/ml
  LTB4 in supernatant (Table XXI): 23.5 ± 0.2 pg LTB4 100 ul supernatant
  calculated LTB4 produced/10^5 BUD-8 cells: 973 pg per 10^5 cells
[2]; Homo sapiens, Fibroblast, 18 h, 1 ug/ml, read-out: % Effect on LTB4 production
  inhibition at 1 µg/mL: -2%
[2]; Homo sapiens, Fibroblast, 18 h, 10 ug/ml, read-out: % Effect on LTB4 production
  inhibition at 10 µg/mL: 45%
[2]; Homo sapiens, Fibroblast, 18 h, 25 ug/ml, read-out: % Effect on LTB4 production
  inhibition at 25 µg/mL: 51%
[2]; Homo sapiens, Fibroblast, 18 h, 100 ug/ml, read-out: % Effect on LTB4 production
  inhibition at 100 µg/mL: 52%
[2]; Homo sapiens, Fibroblast, 18 h, 300 ug/ml, read-out: % Effect on LTB4 production
  inhibition at 300 µg/mL: 28%
[2]; Homo sapiens, Fibroblast, 18 h, 750 ug/ml, read-out: % Effect on LTB4 production
  inhibition at 750 µg/mL: 35%
[3]
  effect on PGE2 production in words: significantly decrease of levels of both pro-inflammatory mediators are seen at several non-toxic doses
[3]; 1 ug/ml
  PGE2 in supernatant: 7.1 ± 1.0 pg PGE2 /50 ul supernatant
  calculated PGE2 produced/10^5 BUD-8 cells: 336 pg per 10^5 cells
[3]; 10 ug/ml
  PGE2 in supernatant: 7.5 ± 0.9 pg PGE2 /50 ul supernatant
[3]; 25 ug/ml
  calculated PGE2 produced/10^5 BUD-8 cells: 366 pg per 10^5 cells
[3]; 100 ug/ml
  PGE2 in supernatant: 13.6 ± 4.4 pg PGE2 /50 ul supernatant
  calculated PGE2 produced/10^5 BUD-8 cells: 850 pg per 10^5 cells
[3]; 300 ug/ml
  PGE2 in supernatant: 23.7 ± 1.5 pg PGE2 /50 ul supernatant
  calculated PGE2 produced/10^5 BUD-8 cells: 1654 pg per 10^5 cells
[3]; 750 ug/ml
  PGE2 in supernatant: 4.0 ± 0.5 pg PGE2 /50 ul supernatant
  calculated PGE2 produced/10^5 BUD-8 cells: 82 pg per 10^5 cells
[3]; Homo sapiens, Fibroblast, 18 h, 1 ug/ml, read-out: % Effect on PGE2 production
  inhibition at 1 µg/mL: 51%
[3]; Homo sapiens, Fibroblast, 18 h, 10 ug/ml, read-out: % Effect on PGE2 production
  inhibition at 10 µg/mL: 52%
[3]; Homo sapiens, Fibroblast, 18 h, 25 ug/ml, read-out: % Effect on PGE2 production
  inhibition at 25 µg/mL: 52%
[3]; Homo sapiens, Fibroblast, 18 h, 100 ug/ml, read-out: % Effect on PGE2 production
  inhibition at 100 µg/mL: 59%
[3]; Homo sapiens, Fibroblast, 18 h, 300 ug/ml, read-out: % Effect on PGE2 production
  inhibition at 300 µg/mL: 67%
[3]; Homo sapiens, Fibroblast, 18 h, 750 ug/ml, read-out: % Effect on PGE2 production
  inhibition at 750 µg/mL: 65%
